Among the data in ChEMBL document CHEMBL5365556 (ACS Med Chem Lett, 2023) are IC50 values, retold here.

In this assay the test system is THP-1. In words: Cytotoxicity against human THP-1 cells assessed as reduction in cell viability measured after 24 hrs by Celltiter-Glo assay. Type of assay: functional, cell-based. As to conditions: THP-1, 24 h. For orientation: Cellular ATP, detected with luciferase, serves as a proxy for viable cell number.

Consider `CCN(CC)C(=S)SSC(=S)N(CC)CC`, for which the IC50 – broadly, the concentration that inhibits the measured activity by half – was found to be 7 µM.
